Literature values as cited in patent US11179338B1, “Powder for oral suspension containing tadalafil” (AUSON PHARMACEUTICALS INC., priority 2021, dated 2021).

CN1CC(=O)N2[C@H](c3ccc4c(c3)OCO4)c3[nH]c4ccccc4c3C[C@@H]2C1=O [Tadalafil, pyrazino [1′,2′:1,6]pyrido[3,4-b]indole-1,4-dione, 6-(1,3-benzodioxol-5-yl) 2,3,6,7,12,12a-hexahydro-2-methyl-, (6R,12aR)-]
solubility in water: insoluble
